What was measured:
VHL/EloB/EloC (VBC) = VHL/EloB/EloC (VBC) (Homo sapiens, UniProt P40337); assay: SPR, immobilised His-tagged VBC; assay type: binding
NanoLuc-VHL = NanoLuc-VHL (Homo sapiens, UniProt P40337); assay: NanoBRET tracer displacement, live HEK293T cells; assay type: cell-based
[1] = biological target: VHL:GEMIN3aa41-268 (VBC with purified GEMIN3aa41-268) (Homo sapiens, UniProt P40337+Q9UHI6); assay: SPR, immobilised GEMIN3aa41-268, pre-formed VBC:compound complex as analyte; assay type: binding
VHL:GEMIN3aa41-268 (VBC with purified GEMIN3aa41-268), sequence (P40337 whole entry, the tested form may be a part): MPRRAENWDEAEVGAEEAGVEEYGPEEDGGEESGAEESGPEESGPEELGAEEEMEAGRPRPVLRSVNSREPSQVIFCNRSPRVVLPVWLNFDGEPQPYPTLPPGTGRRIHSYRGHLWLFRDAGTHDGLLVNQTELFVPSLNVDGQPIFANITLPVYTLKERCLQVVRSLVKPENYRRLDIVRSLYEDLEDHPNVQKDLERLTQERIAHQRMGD
VHL:GEMIN3aa41-268 (VBC with purified GEMIN3aa41-268), sequence (Q9UHI6 41-268): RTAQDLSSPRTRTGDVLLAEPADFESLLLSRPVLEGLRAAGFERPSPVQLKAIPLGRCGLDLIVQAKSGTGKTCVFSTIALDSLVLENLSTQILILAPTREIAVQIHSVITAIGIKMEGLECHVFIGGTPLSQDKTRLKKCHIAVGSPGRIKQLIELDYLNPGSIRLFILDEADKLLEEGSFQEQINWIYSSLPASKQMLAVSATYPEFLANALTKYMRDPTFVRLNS
VHL:GEMIN3aa41-268 (VBC with purified GEMIN3aa41-268), sequence (Q15369 whole entry, further chain, the tested form may be a part): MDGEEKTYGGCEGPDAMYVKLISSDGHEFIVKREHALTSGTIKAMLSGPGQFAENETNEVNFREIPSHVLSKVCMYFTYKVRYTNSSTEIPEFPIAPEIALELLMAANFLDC
VHL:GEMIN3aa41-268 (VBC with purified GEMIN3aa41-268), sequence (Q15370 whole entry, further chain, the tested form may be a part): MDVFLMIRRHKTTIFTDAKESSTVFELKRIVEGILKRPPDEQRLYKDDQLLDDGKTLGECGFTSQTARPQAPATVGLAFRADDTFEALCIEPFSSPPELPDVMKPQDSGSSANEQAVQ

VHL/EloB/EloC (VBC), sequence (Q15369 whole entry): as the sequence (Q15369 whole entry, further chain, the tested form may be a part) above
VHL/EloB/EloC (VBC), sequence (Q15370 whole entry, further chain): as the sequence (Q15370 whole entry, further chain, the tested form may be a part) above
VHL/EloB/EloC (VBC), sequence (P40337 whole entry): as the sequence (P40337 whole entry, the tested form may be a part) above
NanoLuc-VHL, sequence (P40337 whole entry, the tested form may be a part): as above

Compound	Kd (VHL/EloB/EloC (VBC)) [nM]	IC50 (NanoLuc-VHL) [nM]	Kd [1] [nM]
CC(C)(C)[C@H](NC(=O)c1cnn2c1OCCC2)C(=O)N1C[C@H](O)C[C@H]1C(=O)NCc1ccc(-c2ccc(Cl)cc2Cl)cc1 [compound 1, N-((S)-1-((2S,4R)-2-(((2’,4’-dichloro-[1,1’-biphenyl]-4-yl)methyl)carbamoyl)-4-hydroxypyrrolidin-1-yl)-3,3-dimethyl-1-oxobutan-2-yl)-6,7-dihydro-5H-pyrazolo[5,1-b] [1,3] oxazine-3-carboxamide]	217	870	69
CC(C)(C)[C@H](NC(=O)c1cnn2c1CCCC2)C(=O)N1C[C@H](O)C[C@H]1C(=O)NCc1ccc(-c2ccc(Cl)cc2Cl)cc1 [compound 3, N-((S)-1-((2S,4R)-2-(((2’,4’-dichloro-[1,1’-biphenyl]-4-yl)methyl)carbamoyl)-4-hydroxypyrrolidin-1-yl)-3,3-dimethyl-1-oxobutan-2-yl)-4,5,6,7-tetrahydropyrazolo[1,5-a]pyridine-3-carboxamide]	557		73
CC(C)(C)[C@H](NC(=O)c1cnn2c1OCCC2)C(=O)N1C[C@H](O)C[C@H]1C(=O)NCc1ccc(-c2ccc(Cl)cc2)cc1 [compound 4, N-((S)-1-((2S,4R)-2-(((4’-chloro-[1,1’-biphenyl]-4-yl)methyl)carbamoyl)-4-hydroxypyrrolidin-1-yl)-3,3-dimethyl-1-oxobutan-2-yl)-6,7-dihydro-5H-pyrazolo[5,1-b][1,3]oxazine-3-carboxamide]	200		487

These reach a lower Kd (VHL/EloB/EloC (VBC)). Values come first.

Kd (VHL/EloB/EloC (VBC)) [nM]	IC50 (NanoLuc-VHL) [nM]	Kd [1] [nM]	Compound
170			CC(C)(C)[C@H](NC(=O)c1cnn2c1OCCC2)C(=O)N1C[C@H](O)C[C@H]1C(=O)NCc1ccc(-c2ccccc2)cc1 [compound 6, N-((S)-1-((2S,4R)-2-(([1,1’-biphenyl]-4-ylmethyl)carbamoyl)-4-hydroxypyrrolidin-1-yl)-3,3-dimethyl-1-oxobutan-2-yl)-6,7-dihydro-5H-pyrazolo[5,1-b][1,3]oxazine-3-carboxamide]
74.3			CC(C)(C)[C@H](NC(=O)c1cnn2c1OCCC2)C(=O)N1C[C@H](O)C[C@H]1C(=O)NCc1ccc(-c2ccccc2Cl)cc1 [compound 5, N-((S)-1-((2S,4R)-2-(((2’-chloro-[1,1’-biphenyl]-4-yl)methyl)carbamoyl)-4-hydroxypyrrolidin-1-yl)-3,3-dimethyl-1-oxobutan-2-yl)-6,7-dihydro-5H-pyrazolo[5,1-b][1,3]oxazine-3-carboxamide]

Reference: publication doi:10.1101/2025.03.19.644003v1 (biorxiv, 2025)
